“Also recorded” adds a separate entry of the source.
Experiments:
R17 = R17 bacteriophage screen (photoinactivation, plaque assay on Hfr 3000 bacteria); format: cell-based; settings: for Average log Inactivation, 4 μM: compound at 4 μM; for Average log Inactivation, 4 μM / Average log Inactivation, 32 μM: 15% FBS in DMEM, UVA 1 J/cm^2, average of 1-4 replicates; for Average log Inactivation, 32 μM: compound at 32 μM
Excerpt: A discussion of inactivation of pathogens other than the R17 model discussed below can be found in U.S. Pat. No. 5,593,823. This reference enables the selection criteria for use in pathogen inactivation of blood products for the compounds of the present invention. The screening technique used to evaluate the compounds of the present invention is to perform a bacteriophage screen; an assay which determines nucleic acid binding of test compounds. A screen of this type, an R17 screen, is described in detail in EXAMPLE 13, below.
The R17 bacteriophage screen is believed to be predictive of HIV inactivation efficiency, as well as the efficiency of compounds against many other viruses. It is a small, single stranded RNA phage. […] Further, single stranded RNA pathogens are more difficult to inactivate because psoralens can neither intercalate between base pairs, as with double-stranded nucleic acids, nor form diadducts which function as interstrand crosslinks. Thus it is expected that when inactivation of R17 is achieved, these same conditions will cause the inactivation of many viruses and bacteria.
The R17 was grown up in Hfr 3000 bacteria, approximate titer 5×10^11. (R17 and Hfr 3000 were obtained from American Tissue Culture Collection (ATCC), Washington, D.C.) The R17 phage stock was added to a solution of 15% fetal bovine serum in DMEM to a final phage concentration of 10^8/mL. An aliquot (0.5 mL) was transferred to a 1.5 mL snap-top polyethylene tube. An aliquot (0.004-0.040 mL) of the test compound stock solution prepared in water, ethanol or dimethylsulfoxide at 0.5 mM was added to the tube. Compounds were tested at concentrations between 4 μM and 32 μM. (AMT is commercially available from HRI, Inc., Concord, Calif.; 8-MOP is commercially available from Sigma, St. Louis, Mo.). The tubes were placed in a light device similar to that described in U.S. Pat. No. 5,593,823 (Baxter Ultraviolet Irradiation System, modified #4R4440) and irradiated at a dose setting of 1 J/cm^2. Sterile 13 mL dilution tubes were prepared; each test compound required one tube with 0.4 mL of LB broth and five tubes containing 0.5 mL of LB broth. To make the dilutions, a 0.100 mL aliquot of the irradiated solution of phage and test compound was added to the first dilution tube of 0.4 mL of media then 0.020 mL of this solution was added to the second tube of 0.5 mL medium (1:25). The second solution was then diluted serially (1:25) into the remaining tubes. To each diluted sample was added 0.050 mL of Hfr 3000 bacteria cultured overnight and 3 mL of molten LB top agar and the mixed materials were poured onto LB broth plates. After the top agar hardened, the plates were incubated at 37° C. overnight. The plaque forming units were then counted the following morning and the titer of the phage remaining after phototreatment was calculated based on the dilution factors.
The following controls were run: the “phage only” in which phage was not treated with test compound and not irradiated (listed as “starting titer” in the tables below); and the “dark” control in which the phage/test compound solution was not irradiated before it was diluted and plated. A “UV only” control in which the phage was illuminated without treatment with test compound was not run with these experiments.

[1] = Ames assay / bacterial assays, absence of light; cited from earlier work
DNA = settings: cited from earlier work
cell-free HIV (HIV-1) = assay: Inactivation of cell-free HIV, residual infectivity by MT-2 microtiter plaque assay; format: cell-based; settings: compound at 32 μM; 1 minute irradiation 320-400 nm (20 mW/cm^2); DMEM/15% FBS
Protocol: Pathogen inactivation efficiency of three compounds tested in the previous example were evaluated by examining the ability of the compounds to inactivate cell-free virus (HIV). Inactivation of cell-free HIV was performed as follows.
Small aliquots of the compounds were added to stock HIV-1 to a compound concentration of 32 μM in a total of 0.5 mL. The stock HIV (10^5-10^7 plaque forming units/mL) was in DMEM/15% FBS. The 0.5 mL test aliquots were placed in 24 well polystyrene tissue culture plates and irradiated with 320-400 nm (20 mW/cm^2) for 1 minute on a device similar to the device of EXAMPLE 13. Controls included HIV-1 stock only, HIV-1 plus UVA only, and HIV-1 plus the highest concentration of each psoralen tested, with no UVA. Post irradiation, all samples were stored frozen at −70° C. until assayed for infectivity by a microtiter plaque assay. Aliquots for measurement of residual HIV infectivity in the samples were withdrawn and cultured.
Residual HIV infectivity was assayed using an MT-2 infectivity assay. (Previously described in Hanson, C. V., Crowford-Miksza, L. and Sheppard, H. W., J. Clin. Micro 28:2030 (1990)). The assay medium was 85% DMEM (with a high glucose concentration) containing 100 μg of streptomycin, 100 U of penicillin, 50 μg of gentamicin, and 1 μg of amphotericin B per mL, 15% FBS and 2 μg of Polybrene (Sigma Chemical Co., St. Louis, Mo.) per mL. Test and control samples from the inactivation procedure were diluted in a mixture of 50% assay medium and 50% normal human serum. The samples were serially diluted directly in 96-well plates (Corning Glass Works, corning, N.Y.). The plates were mixed on an oscillatory shaker for 30 seconds and incubated at 37° C. in a 5% CO2 atmosphere for 1 to 18 hours. […] After 24 to 48 hours, the orange fluorescence-stained microplaques were visualized by placing the plates on an 8,000 μW/cm^2 304 nm UV light box (Fotodyne, Inc., New Berlin, Wis.). The plaques were counted at a magnification of ×20 to ×25 through a stereomicroscope.

Compound	Average log Inactivation, 4 μM (R17) [log]	Average log Inactivation, 32 μM (R17)	also measured
Cc1cc2cc3c(C)c(COCCN)c(=O)oc3c(C)c2o1 [3-(4-amino-2-oxa)butyl-4,5′,8-trimethylpsoralen]	–	–	Effectiveness of R17 inactivation relative to AMT (R17; similar inactivation at less than half the AMT concentration, data not shown): at least twice as effective as AMT
Cc1oc2c(C)c3oc(=O)cc(C)c3cc2c1CN [AMT, 4′-aminomethyl-4,5′,8-trimethylpsoralen, reference compound]	1.6	>6.5 log	Mutagenicity [1]: highly mutagenic; also recorded: significant levels of mutagenicity
COc1c2occc2cc2ccc(=O)oc12 [Compound 8-MOP, 8-methoxypsoralen]	–	–	Photoactivated binding to nucleic acids (DNA): relatively low; Mutagenicity [1]: low mutagenicity
Cc1coc2c(C)c3oc(=O)c(CN)c(C)c3cc12.Cl [Compound 31, 3-aminomethyl-4,4′,8-trimethylpsoralen hydrochloride]	3.1	–	Log Kill of cell-free HIV (cell-free HIV (HIV-1)): 1.9 log
Cc1oc2c(CN)c3oc(=O)cc(C)c3cc2c1C [Compound 32, 8-aminomethyl-4,4′,5′-trimethylpsoralen]	1.1	–	Log Kill of cell-free HIV (cell-free HIV (HIV-1)): 1.1 log
Cc1cc2cc3c(C)cc(=O)oc3c(CN)c2o1.Cl [Compound 33, 8-aminomethyl-4,5′-dimethylpsoralen hydrochloride]	0.4	1.7 log	–
Cc1oc2c(C)c3oc(=O)c(CN)c(C)c3cc2c1C [Compound 34, 3-aminomethyl-4,4′,5′,8-tetramethylpsoralen]	1.4	–	Log Kill of cell-free HIV (cell-free HIV (HIV-1)): 3.5 log
Cc1cc2cc3c(C)c(CCN)c(=O)oc3c(C)c2o1 [Compound 35, 3-amino ethyl-4,5′,8-trimethylpsoralen]	1.6	–	–
Cc1oc2c(C)c3oc(=O)cc(CN)c3cc2c1C [Compound 36, 4-aminomethyl-4′,5′,8-trimethylpsoralen]	0.1	1.1 log	–
Cc1coc2c(C)c3oc(=O)c(COCCN)c(C)c3cc12 [Compound 37, 3-(4-amino-2-oxa)butyl-4,4′,8-trimethylpsoralen]	4.3	>6.5 log	–
Cc1oc2c(C)c3oc(=O)cc(COCCN)c3cc2c1C [Compound 38, 4-(4-Amino-2-oxa)butyl-4′,5′,8-trimethylpsoralen]	2.2	≧4.0 log	–
Cc1oc2cc3oc(=O)ccc3c(COCCN)c2c1C [Compound 39, 5-(4-amino-2-oxa)butyl-4′,5′-dimethylpsoralen]	1.6	>6.6 log	–
Cc1oc2c(COCCN)c3oc(=O)cc(C)c3cc2c1C [Compound 40, 8-(4-amino-2-oxa)butyl-4,4′,5′-trimethylpsoralen]	2.1	>6.3 log	–
Cc1coc2cc3oc(=O)c(CN)cc3cc12 [Compound 41, 3-aminomethyl-4′-methylpsoralen]	0	0.6 log	–
Cc1coc2cc3oc(=O)cc(CN)c3cc12 [Compound 42, 4-aminomethyl-4′-methylpsoralen]	0	1.2 log	–

From patent US6455286B1, “Psoralens for pathogen inactivation” (Cerus Corporation, priority 1997, dated 2002)
